Test results reported in PMC8300761, “In Vitro Antifungal Activity and Toxicity of Dihydrocarvone-Hybrid Derivatives against Monilinia fructicola” (Antibiotics, 2021).
≈ marks a conversion by molar mass, not a printed value.

Experiments:
[1] = test system: Monilinia fructicola strain 2 (S2); assay: radial mycelial growth test, M. fructicola strain 2 (S2); type: cell-based; conditions: PDA, 120 h at 24 °C in the dark, n = 6, read-out: EC50 ± SD, mycelial growth inhibition
Excerpt: (§1) Both strains (S1 and S2) of M. fructicola were kindly provided by the phytopathology laboratory of the Servicio Agrícola y Ganadero de Chile (SAG), Santiago, Chile. The isolate S1 was recovered from infected peach from commercial orchards in the O’Higgins region, Chile, and the isolate S2 was recovered from infected nectarines from commercial orchards in the province of Maipo, Metropolitan Region, Chile and identified to species level with a PCR assay developed by the molecular biology laboratory belonging to SAG; these were maintained on potato dextrose agar (PDA) and incubated for 120 h at 24 °C.
(§2) The antifungal activity of all dihidrocarvone-hybrid derivatives (2–9) against both strains of M. fructicola was determined by the radial test previously reported. The test compounds were dissolved in ethanol (5% v/v) and added to the potato dextrose agar medium (PDA) medium in the petri dishes to obtain a final concentration of 10, 25, 50, 150, and 250 µg/mL. The mycelial growth diameters were measured after 120 h of incubation at 24 °C in the dark, and the inhibition percentages were calculated with respect to the negative ethanol control. The commercial fungicides Mystic® 520 SC (Pyrimethanil 400 g/L, Trifloxystrobin 120 g/L) (Lot: PAIS004727; Bayer, Santiago, Chile) and BC-1000® (grapefruit seed and pulp extract (Citrus x paridisi), 50% w/v (500 g/L)) were used as positive controls and were measured under the same conditions as the compounds.
(§3) The results were expressed as the effective concentration (EC50) that reduced mycelial growth by 50%. This value was determined by regressing the values of the percentage inhibition of radial growth against the compound concentration values. The fit analysis was performed using the Origin Pro® V. 8.0 software (OriginLab Corporation, Northampton, Massachusetts, EE.UU). These experiments were performed in triplicate and each assay was performed twice (n = 6). Significant differences were determined using a one-way analysis of variance, followed by a pairwise comparison of means (LSD test; p < 0.05) (Microsoft Office Excel® 2016).

Artemia salina L. larvae = assay: brine shrimp lethality test (BSLT); type: in vivo; conditions: for LD50 (BSLT): Artemia salina larvae, 24 h, probit analysis
Procedure: The assay was carried out according to the principle and protocol previously described. Briefly, Artemia salina L. eggs were inserted into a box containing seawater; the box was placed under a UV lamp; after 48 h, the eggs hatched into larvae and were ready for the test. All of the compounds were dissolved in methanol at final concentrations of 1000 to 10 µg/mL. After 24 h, the live and dead shrimp were counted. The experiment was conducted in triplicate. The median lethal concentrations (LD50) with 95% confidence intervals were determined using the Probit analysis method. For LC50 values, probit analysis was used with Minitab V. 15 software (Minitab® Statistical Software, State College, PA, USA).

[2] = test system: Monilinia fructicola strain 1 (S1); assay: radial mycelial growth test, M. fructicola strain 1 (S1); type: cell-based; conditions: PDA, 120 h at 24 °C in the dark; for EC50: Monilinia fructicola, 120 h, n = 6, read-out: EC50 ± SD, mycelial growth inhibition; for EC50 ± SD, mycelial growth inhibition: n = 6
Excerpt: as §1, §2, §3

[3] = test system: both strains of M. fructicola; assay: radial mycelial growth test, inhibition percentages over both strains; type: cell-based; conditions: Monilinia fructicola, range over strains 1 and 2, read-out: inhibition percentage of mycelial growth
Excerpt: as §1
as §2, with “The test compounds were dissolved in ethanol (5% v/v) and added to the potato dextrose agar medium (PDA) medium in the petri dishes to obtain a final concentration of 10, 25, 50, 150, and 250 µg/mL.” left out, “compounds. […]” for “compounds.”

EC50 [1]	EC50 [2]	EC50 ± SD, mycelial growth inhibition [2]	SMILES	LD50 (BSLT) (Artemia salina L. larvae)	inhibition at 150 µg/mL ([3]; 150 µg/mL)	inhibition at 250 µg/mL ([3]; 250 µg/mL)	times less toxic than the commercial control of M. fructicola (BSLT) (Artemia salina L. larvae; compared with the commercial control (Mystic 520 SC))
> 250 µg/mL	> 250 µg/mL	–	C=C(C)[C@@H]1CCC(C)C(=O)C1=Cc1ccccc1 (stereo partly drawn) [Compound 2, (3S)-2-benzylidene-3-isopropenyl-6-methylcyclohexanone]	>1000 µg/mL	–	–	–
58 ± 0.7 µg/mL (≈ 215 µM)	> 250 µg/mL	–	C=C(C)[C@@H]1CCC(C)C(=O)C1=Cc1ccccc1OC (stereo partly drawn) [Compound 3, (3S)-3-isopropenyl-2-(2-methoxybenzylidene)-6-methylcyclohexanone]	>1000 µg/mL	–	–	–
39.6 ± 1.1 µg/mL (≈ 146 µM)	273.2 ± 0.9 µg/mL (≈ 1010 µM)	–	C=C(C)[C@@H]1CCC(C)C(=O)C1=Cc1cccc(OC)c1 (stereo partly drawn) [Compound 4, (3S)-3-isopropenyl-2-(3-methoxybenzylidene)-6-methylcyclohexanone]	>1000 µg/mL	–	–	–
23.1 ± 1.2 µg/mL (≈ 85.4 µM)	> 250 µg/mL	–	C=C(C)[C@@H]1CCC(C)C(=O)C1=Cc1ccc(OC)cc1 (stereo partly drawn) [Compound 5, (3S)-3-isopropenyl-2-(4-methoxybenzylidene)-6-methylcyclohexanone]	>1000 µg/mL	–	–	–
47.7 ± 0.8 µg/mL (≈ 159 µM)	> 250 µg/mL	–	C=C(C)[C@@H]1CCC(C)C(=O)C1=Cc1ccc(OC)c(OC)c1 (stereo partly drawn) [Compound 6, (3S)-2-(3,4-dimethoxybenzylidene)-3-isopropenyl-6-methylcyclohexanone]	954 µg/mL	–	–	–
18.1 µg/mL (≈ 63.7 µM)	146 to 148 µg/mL (≈ 513 to 521 µM)	148.1 ± 1.4 µg/mL (≈ 521 µM)	C=C(C)[C@@H]1CCC(C)C(=O)C1=Cc1ccc2c(c1)OCO2 (stereo partly drawn) [Compound 7, (3S)-2-(1,3-benzodioxol-5-ylmethylene)-3-isopropenyl-6-methylcyclohexanone]	910 µg/mL	–	–	–
15.7 ± 1.3 µg/mL (≈ 61.2 µM)	146 to 148 µg/mL (≈ 569 to 578 µM)	145.9 ± 1.7 µg/mL (≈ 569 µM)	C=C(C)[C@@H]1CCC(C)C(=O)C1=Cc1cccc(O)c1 (stereo partly drawn) [Compound 8, (3S)-2-(3-hydroxybenzylidene)-3-isopropenyl-6-methylcyclohexanone]	890 µg/mL	47 to 88%	62 to 97%	–
> 250 µg/mL	> 250 µg/mL	–	C=C(C)[C@@H]1CCC(C)C(=O)C1=Cc1ccc(O)cc1 (stereo partly drawn) [Compound 9, (3S)-2-(4-hydroxybenzylidene)-3-isopropenyl-6-methylcyclohexanone]	847 µg/mL	–	–	80 times

SMILES	EC50 [1]	EC50 [2]	EC50 ± SD, mycelial growth inhibition [2]	LD50 (BSLT) (Artemia salina L. larvae)	inhibition at 150 µg/mL ([3]; 150 µg/mL)	inhibition at 250 µg/mL ([3]; 250 µg/mL)	times less toxic than the commercial control of M. fructicola (BSLT) (Artemia salina L. larvae; compared with the commercial control (Mystic 520 SC))
C=C(C)[C@@H]1CCC(C)C(=O)C1 (some centres unmarked) [Compound 1, Dihydrocarvone]	> 250 µg/mL	> 250 µg/mL	–	550 µg/mL	–	–	–
